Patent US20250108036A1, “COMPOSITIONS FOR REMOVING SENESCENT CELLS AND USES THEREOF” (LIFECEUTIX CO., LTD., priority 2021, published 2025)

How the values were obtained:
[1] = test system: p16; test: p16 mRNA qRT-PCR in organ tissues of naturally aged mice (Example 7-2); assay type: in vivo, C57BL6J mice; settings: LX-112 70 mg/kg oral daily 21 days, aged untreated = 100%
Procedure: (§1) After 22-month-old female C57BL6J mice (purchased from KRIBB Laboratory Animal Resource Center) were adapted to the experimental environment for one week, the aged mice were randomized into an experimental group and a control group. 8-week-old mice that were not aged were used as controls. LX-112 was mixed with 0.5% CMC-Na solution (purchased from Sigma) and administered orally at a concentration of 70 mg/kg daily for 21 days. The control group was administered only the solution in the same volume. After drug administration was completed, the method described in each Example below was performed.
The mouse was sacrificed, RNA was extracted from the organ tissue of each region, and qRT-PCR was performed using the synthesized cDNA. Specifically, in order to maintain the quality of RNA during the RNA extraction process, the tissue from each collected area was immediately cut into 30 mg to 50 mg pieces, placed in RNA stabilization solution (purchased from Thermo Fisher Scientific), and absorbed into the tissue for 1 day. Afterwards, it was stored at −80° C. until use. The collected tissue was placed together with the lysate in a tube containing beads for tissue homogenization (purchased from MP Bio) and homogenized using tissue homogenization equipment (purchased from MP Bio). Total RNA was extracted from the homogenized tissues. The extraction method used an RNA extraction kit (PureLink RNA Mini Kit, purchased from Thermo Fisher Scientific) for soft tissues including liver, kidney, lung, and brain, or TRIzol Reagent (purchased from Thermo Fisher Scientific) for hard tissues including muscle, skin, fat, etc. The concentration of extracted total RNA was quantified using Nanodrop (purchased from Micro Digital) or SpectraMax iD3 Multi-Mode Microplate Reader (purchased from Molecular Device). Genomic DNA was removed from the extracted total RNA using a cDNA synthesis kit (purchased from Thermo Fisher Scientific), and cDNA was prepared. Using the synthesized cDNA, qRT-PCR was performed for each gene using the housekeeping gene β-actin as a standard, using Taqman Fast Abvanced Master Mix (purchased from Applied Biosystems), SFCgreen I qPCR Master Mix (purchased from SFC Probe), or AmfiSure qGreen qPCR Master Mix (purchased from GenDEPOT), and analyzed using the CFX Connect Real-Time PCR Detection System (purchased from Bio Rad). […] Table 22 calculates the amount of p16 mRNA after senescence was induced as 100% and compared it with the amount of p16 mRNA after treatment with LX-112. The primers used were synthesized through bionics, except that TaqMan primers (purchased from Thermo Fisher Scientific) were used for p16 and IL6.

[2] = chlorhexidine gluconate-induced peritoneal fibrosis in mice (Example 6-2); assay type: in vivo, C57BL6J mice; settings: 0.1% CHG 10 ml/kg i.p. every 2 days for 20 days; LX-112 70 mg/kg i.p. daily from day 9
Procedure: After 8-week-old male C57BL6J mice (purchased from KRIBB Laboratory Animal Resource Center) were adapted to the experimental environment for 1 week, the mice were randomized into an experimental group and a control group. To induce peritoneal fibrosis, 0.1% chlorhexidine gluconate (CHG, purchased from Sigma) was dissolved in 15% ethanol phosphate buffer solution and administered intraperitoneally at a concentration of 10 ml/kg every 2 days for 20 days. From day 9, LX-112 was mixed with 0.5% CMC-Na solution (purchased from Sigma) and administered intraperitoneally at a concentration of 70 mg/kg every day. The control group (−) was administered only the solution in the same volume. On the 20th day, paraffin sections of peritoneal tissue prepared by fixation in 4% paraformaldehyde solution were stained with H/E (Hematoxylin/Eosin) and trichrome, and the thickness of the peritoneal mesothelial cell layer was measured under a light microscope.

[3] = test system: SA-β-gal; test: SA-β-gal staining of tissue sections of naturally aged mice (Example 7-3); assay type: in vivo, C57BL6J mice; settings: stained area, LX-112 70 mg/kg oral daily 21 days
Procedure: as §1
The mouse was sacrificed, tissue sections were prepared from the organ tissues of each region, and stained for an aging marker (SA-β-gal) in the same manner as Example 1-1. Specifically, fat was removed from the tissues of each area collected from mice and fixed in 4% formalin at room temperature for more than 24 hours. For cryopreservation, the cells were placed in 30% sucrose for more than 8 hours and then rapidly frozen in cryoprotectant OCT medium for cryosectioning. The rapidly frozen tissue was commissioned to Histoa, a company specializing in histopathology services, and frozen sections were produced. The prepared frozen tissue sections were cut to a thickness of 8 μm, sectioned on a slide cover, dried at room temperature for 30 minutes, and then stored at −80° C. until use. After staining the aging marker (SA-β-gal), the images were taken through an optical microscope, and the area of the stained area was calculated using the Image J program and quantified by normalizing it based on the total area. […] FIG. 2 is a photo result of staining of adipose tissue.

[4] = test system: lipofuscin; test: lipofuscin staining of muscle of doxorubicin-aged mice (Example 8-4); assay type: in vivo, C57BL6J mice; settings: stained area; doxorubicin-aged mice, LX-112 70 mg/kg oral daily 21 days
Procedure: (§2) After adapting 8-week-old male C57BL6J mice (purchased from KRIBB Laboratory Animal Resource Center) to the experimental environment for 1 week, doxorubicin, an anticancer drug, was administered intraperitoneally at a concentration of 10 mg/kg, and mice that were induced to age for more than 10 days were assigned to an experimental group and a control group. LX-112 was mixed with 0.5% CMC-Na solution (purchased from Sigma) and administered orally at a concentration of 70 mg/kg daily for 21 days. The control group was administered only the solution in the same volume. After drug administration was completed, the method described in each Example below was performed.
Mice were sacrificed in the same manner as in Example 7-4, and tissue sections were prepared from muscle tissue. Lipofuscin, an aging-related degenerative marker was stained.

[5] = test system: IL6, MCP1; test: serum IL6 and MCP1 ELISA in naturally aged mice (Example 7-5); assay type: in vivo, C57BL6J mice; settings: LX-112 70 mg/kg oral daily 21 days
Procedure: as §1
Serum collected from mice was stored at −80° C. until use. The amounts of IL6 and MCP1, which are aging-related inflammation secretory factors (SASPs), were measured in serum using an enzyme-linked immunosorbent assay (ELISA Kit, purchased from R&D Systems).

[6] = test system: SA-β-gal; test: SA-β-gal staining of tissues of doxorubicin-aged mice (Example 8-3); assay type: in vivo, C57BL6J mice; settings: stained area; doxorubicin-aged mice, LX-112 70 mg/kg oral daily 21 days
Procedure: as §2
Mice were sacrificed in the same method in described in Example 7-3, and tissue sections were prepared from the organ tissues of each region. SA-β-gal, an aging marker was stained. […] FIG. 3 is a photographic result of staining of adipose tissue.

[7] = test system: A549; test: CellTiter-Glo cell viability of senescent A549 cancer cells (Example 12, Table 67); assay type: cell-based, human; settings: Homo sapiens, A549, doxorubicin-induced senescent A549 cancer cells, 1.1 μM test compound, CellTiter-Glo; read-out: Survival (%)

O=c1c2ccccc2[se]n1CCn1[se]c2ccccc2c1=O [LX-112, 1,2-[bis(1,2-benzisoselenazolone-3(2H)-ketone)]ethane]
p16 mRNA (%) Brain [1]: 89 (±5) %
p16 mRNA (%) Kidney [1]: 52 (±7.9) %
p16 mRNA (%) Liver [1]: 62 (±3.5) %
p16 mRNA (%) Lung [1]: 69 (±1) %
p16 mRNA (%) Muscle [1]: 76 (±3.1) %
p16 mRNA (%) Skin [1]: 74 (±6.7) %
p16 mRNA (%) eWAT [1]: 79 (±2) %
Submesothelial Thickness (μm) [2]: 43.1 (±10.4) μm
SA-β-gal (%) Kidney [3]: 55 (±17) %
SA-β-gal (%) Liver [3]: 58 (±6) %
SA-β-gal (%) Lung [3]: 67 (±6) %
SA-β-gal (%) Skin [3]: 68 (±9) %
SA-β-gal (%) eWAT [3]: 38 (±7) %
Lipofuscin (%) Muscle [4]: 77.1 (±8) %
IL6 (%) [5]: 63 (±12.8) %
MCP1 (%) [5]: 58 (±9.8) %
SA-β-gal (%) Kidney [6]: 69.2 (±10.2) %
SA-β-gal (%) Liver [6]: 67.4 (±9.9) %
SA-β-gal (%) Lung [6]: 64.2 (±9.2) %
SA-β-gal (%) eWAT [6]: 51.4 (±13.4) %

COC(=O)c1ccc([C@H]2c3[nH]c4ccccc4c3C[C@H](C(=O)OC)N2C(=O)CCl)cc1 [LX-405]
viability at 1.1 µM [7]: 23.8%
